This passage reports IC50 results from patent publication US10562912B2 (C&C Research Laboratories, priority 2013, dated 2020).

Type in all cases: cell-based
The target in one assay is T1, STAT3 (Homo sapiens, UniProt P40763).
T1 construct: plasmid pSTAT3-TA-luc), which contains a stably operating STAT3 promoter; endogenous in cells
Description: STAT3 reporter gene assay (luciferase), LNCaP stable cell line (pSTAT3-TA-luc), IL-6 stimulation. The method, boiled down: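 Cytotoxicity was run on a duplicate plate with CellTiter-Glo, while the other plate gave luciferase read-outs from lysed LNCaP pSTAT3-TA-luc reporter cells. Cells were treated with graded compound concentrations plus IL-6 (10 ng/mL final) for 24–48 h in 3% DCC-FBS medium. Unstimulated and stimulated wells served as negative and positive controls.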

Another assay concerns MDA-MB-231. The experiment in a line: Cell growth inhibition assay, breast cancer cell line MDA-MB-231. To be noted: Homo sapiens; MDA-MB-231 breast cancer cell line, 5,000 cells/well.
The subject of another assay is LNCaP. The experiment in a line: Cell growth inhibition assay, prostate cancer cell line LNCaP (medium with 10 ng/mL IL-6). Conditions: Homo sapiens, medium supplemented with 10 ng/mL of IL-6, 10,000 cells/well.
The subject of a further assay is DU-145. Description: Cell growth inhibition assay, prostate cancer cell line DU-145. Conditions: Homo sapiens, DU-145 prostate cancer cell line. In short, it runs like this: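 Cells were seeded at 3,000/well (HCT116, DU-145) or 5,000/well (SW626 and the others) and exposed to serial compound dilutions for 72 to 96 h at 37 °C under 5% CO2. Viability was read as CellTiter-Glo luminescence against 0.1% DMSO and cell-free wells.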

T1 sequence (P40763 whole entry): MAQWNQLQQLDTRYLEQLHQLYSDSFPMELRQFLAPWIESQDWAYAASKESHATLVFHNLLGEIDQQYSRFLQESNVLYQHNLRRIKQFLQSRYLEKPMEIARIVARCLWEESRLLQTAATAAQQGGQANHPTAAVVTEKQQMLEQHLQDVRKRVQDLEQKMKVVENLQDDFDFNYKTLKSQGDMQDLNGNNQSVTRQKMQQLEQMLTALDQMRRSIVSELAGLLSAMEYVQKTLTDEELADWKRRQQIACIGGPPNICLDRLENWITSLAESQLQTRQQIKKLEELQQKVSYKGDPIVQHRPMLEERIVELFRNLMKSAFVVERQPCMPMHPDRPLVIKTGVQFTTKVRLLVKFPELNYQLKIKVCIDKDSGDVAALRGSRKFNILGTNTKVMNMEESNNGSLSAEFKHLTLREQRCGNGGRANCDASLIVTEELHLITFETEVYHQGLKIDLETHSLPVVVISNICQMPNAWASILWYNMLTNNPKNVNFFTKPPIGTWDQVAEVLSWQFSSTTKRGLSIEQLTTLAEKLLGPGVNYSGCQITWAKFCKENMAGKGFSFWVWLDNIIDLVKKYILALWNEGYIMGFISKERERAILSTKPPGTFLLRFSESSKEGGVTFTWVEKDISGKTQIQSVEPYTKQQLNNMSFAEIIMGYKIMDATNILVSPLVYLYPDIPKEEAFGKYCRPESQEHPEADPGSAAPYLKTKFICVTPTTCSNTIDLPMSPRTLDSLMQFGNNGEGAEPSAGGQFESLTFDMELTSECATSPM

As for `COc1cc2cc(C(=O)Nc3cc(Br)cc(C(C)(C)c4ccc(F)cc4)c3)[nH]c2cc1NS(C)(=O)=O` [Example 19, N-(3-bromo-5-(2-(4-fluorophenyl)propan-2-yl)phenyl)-5-methoxy-6-(methylsulfonamido)-1H-indole-2-carboxamide], the IC50 was 0.12 µM at STAT3, 0.088 µM in the assay on MDA-MB-231, 0.52 µM with LNCaP and 0.15 µM in the assay on DU-145.
For the molecule `CC(C)(c1ccc(F)cc1)c1cc(Cl)cc(NC(=O)c2cc3ccc(NS(C)(=O)=O)cc3[nH]2)c1` [Example 21, N-(3-chloro-5-(2-(4-fluorophenyl)propan-2-yl)phenyl)-6-(methylsulfonamido)-1H-indole-2-carboxamide], the IC50 worked out at 0.22 µM against STAT3, 0.054 µM in the assay with MDA-MB-231, 0.9 µM with LNCaP and 0.19 µM in the assay with DU-145.
Consider `CC(C)(c1ccc(F)cc1)c1cc(Br)cc(NC(=O)c2cc3cc(NS(C)(=O)=O)ccc3s2)c1` [Example 32, N-(3-bromo-5-(2-(4-fluorophenyl)propan-2-yl)phenyl)-5-(methylsulfonamido)benzo[b]thiophene-2-carboxamide], for which the IC50 stood at 0.034 µM on STAT3, 0.021 µM in the assay with MDA-MB-231, 0.15 µM with LNCaP and 0.044 µM in the assay on DU-145.
For `COc1cc(OC(F)(F)F)cc(C(C)(C)c2cccc(NC(=O)c3cc4cc(NS(C)(=O)=O)ccc4s3)c2)c1` [Example 33, N-(3-(2-(3-methoxy-5-(trifluoromethoxy)phenyl)propan-2-yl)phenyl)-5-(methylsulfonamido)benzo[b]thiophene-2-carboxamide] the same measures were 0.035 µM, 0.003 µM, 0.15 µM and 0.037 µM.
The like results for `CC(C)(c1cc(Br)cc(NC(=O)c2cc3cc(NS(C)(=O)=O)ccc3s2)c1)c1cccc(OCC(N)=O)c1` [Example 43, N-(3-(2-(3-(2-amino-2-oxoethoxy)phenyl)propan-2-yl)-5-bromophenyl)-5-(methylsulfonamido)benzo[b]thiophene-2-carboxamide] were, in that order, 2.7 µM, 3.6 µM, 5.8 µM and 4.9 µM.
In the case of `CCC(CC)(c1cc(NC(=O)c2cc3cc(NS(C)(=O)=O)ccc3s2)cc(OC)c1)c1cc(OC)cc(OC(F)(F)F)c1` [Example 54, N-(3-methoxy-5-(3-(3-methoxy-5-(trifluoromethoxy)phenyl)pentan-3-yl)phenyl)-5-(methylsulfonamido)benzo[b]thiophene-2-carboxamide], the IC50 was found to be 0.048 µM at STAT3, 0.036 µM in the assay on MDA-MB-231, 0.17 µM in the assay on LNCaP and 0.046 µM with DU-145.
On to `CN1CCN(Cc2cccc(C(C)(C)c3cc(Br)cc(NC(=O)c4cc5cc(NS(C)(=O)=O)ccc5s4)c3)c2)CC1` [Example 115, N-(3-bromo-5-(2-(3-((4-methylpiperazin-1-yl)methyl)phenyl)propan-2-yl)phenyl)-5-(methylsulfonamido)benzo[b]thiophene-2-carboxamide], for which the IC50 against STAT3 amounted to 2.5 µM; in the assay with MDA-MB-231 it was 1.5 µM; in the assay with LNCaP it was 5.6 µM; in the assay on DU-145, 1.7 µM.
Take `CC(C)(C)OC(=O)N1CCN(Cc2cccc(C(C)(C)c3cc(Br)cc(NC(=O)c4cc5ccc(NS(C)(=O)=O)cc5[nH]4)c3)c2)CC1` [Example 117, tert-butyl 4-(3-(2-(3-bromo-5-(6-(methylsulfonamido)-1H-indole-2-carboxamido)phenyl)propan-2-yl)benzyl)piperazine-1-carboxylate]: the IC50 against STAT3 worked out at 0.23 µM; with MDA-MB-231 it was 2.2 µM; in the assay on LNCaP, 2.6 µM; in the assay with DU-145 it was 1.2 µM.
Turning to `C#Cc1cccc(S(=O)(=O)c2cccc(NC(=O)c3cc4ccc(NS(C)(=O)=O)cc4[nH]3)c2)c1` [Example 416], the IC50 at STAT3 is 6 µM; with MDA-MB-231, 2.6 µM; in the assay with LNCaP, 9 µM.
Take `CS(=O)(=O)Nc1ccc2cc(C(=O)Nc3cccc(S(=O)(=O)c4cc(O)cc(C#N)c4)c3)[nH]c2c1` [Example 417, N-(3-((3-cyano-5-hydroxyphenyl)sulfonyl)phenyl)-6-(methylsulfonamido)-1H-indole-2-carboxamide]: the IC50 at STAT3, with MDA-MB-231 and in the assay with LNCaP was > 10 µM each time.
Consider `CS(=O)(=O)Nc1ccc2sc(C(=O)Nc3cccc(C4(c5ccccc5)CC4)c3)cc2c1` [Example 421, 5-(methylsulfonamido)-N-(3-(1-phenylcyclopropyl)phenyl)benzo[b]thiophene-2-carboxamide], for which the IC50 on STAT3 came to 0.2 µM; with MDA-MB-231, 0.089 µM; in the assay on LNCaP it was 1.1 µM.
As for `CS(=O)(=O)Nc1ccc2cc(C(=O)Nc3cccc(C4(c5ccccc5)CC4)c3)[nH]c2c1` [Example 422, 6-(methylsulfonamido)-N-(3-(1-phenylcyclopropyl)phenyl)-1H-indole-2-carboxamide], the figures for the IC50 against STAT3, with MDA-MB-231 and with LNCaP were 0.76 µM, 0.54 µM and 2.1 µM, respectively.
In the case of `C=C(c1ccccc1)c1cccc(NC(=O)c2cc3cc(NS(C)(=O)=O)ccc3s2)c1` [Example 423, 5-(methylsulfonamido)-N-(3-(1-phenylvinyl)phenyl)benzo[b]thiophene-2-carboxamide], the IC50 at STAT3 came to 0.26 µM; in the assay on MDA-MB-231, 0.094 µM; with LNCaP it was 1.1 µM.
Regarding `CS(=O)(=O)Nc1ccc2sc(C(=O)Nc3cccc(C4(c5ccc(F)cc5)CC4)c3)cc2c1` [Example 424, N-(3-(1-(4-fluorophenyl)cyclopropyl)phenyl)-5-(methylsulfonamido)benzo[b]thiophene-2-carboxamide], the IC50 on STAT3 was 0.15 µM; in the assay with MDA-MB-231, 0.1 µM; in the assay on LNCaP it was 0.5 µM.
For `CS(=O)(=O)Nc1ccc2cc(C(=O)Nc3cccc(C4(c5ccc(F)cc5)CC4)c3)[nH]c2c1` [Example 425, N-(3-(1-(4-fluorophenyl)cyclopropyl)phenyl)-6-(methylsulfonamido)-1H-indole-2-carboxamide] the same measures were 0.46 µM, 0.38 µM and 1.3 µM.
On to `CS(=O)(=O)Nc1ccc2sc(C(=O)Nc3cc(Br)cc(C4(c5ccc(F)cc5F)CC4)c3)cc2c1` [Example 426, N-(3-bromo-5-(1-(2,4-difluorophenyl)cyclopropyl)phenyl)-5-(methylsulfonamido)benzo[b]thiophene-2-carboxamide], for which the IC50 against STAT3 was 0.082 µM; in the assay with MDA-MB-231, 0.074 µM; with LNCaP, 0.3 µM; with DU-145 it was 0.13 µM.
As to `COc1cc(NC(=O)c2cc3cc(NS(C)(=O)=O)ccc3s2)cc(C2(c3cc(OC)cc(OC(F)(F)F)c3)CC2)c1` [Example 427, N-(3-methoxy-5-(1-(3-methoxy-5-(trifluoromethoxy)phenyl)cyclopropyl)phenyl)-5-(methylsulfonamido)benzo[b]thiophene-2-carboxamide], the IC50 at STAT3 was found to be 0.13 µM; in the assay with MDA-MB-231, 0.085 µM; in the assay with LNCaP, 0.41 µM.
As for `CS(=O)(=O)Nc1ccc2cc(C(=O)Nc3cc(OC(F)F)cc(C4(c5ccc(F)cc5)CC4)c3)[nH]c2c1` [Example 428, N-(3-(difluoromethoxy)-5-(1-(4-fluorophenyl)cyclopropyl)phenyl)-6-(methylsulfonamido)-1H-indole-2-carboxamide], the IC50 at STAT3 is 1 µM; in the assay on MDA-MB-231, 0.39 µM; in the assay with LNCaP, 1.4 µM.
As to `CS(=O)(=O)Nc1ccc2sc(C(=O)Nc3cc(OC(F)F)cc(C4(c5ccc(F)cc5)CC4)c3)cc2c1` [Example 429, N-(3-(difluoromethoxy)-5-(1-(4-fluorophenyl)cyclopropyl)phenyl)-5-(methylsulfonamido)benzo[b]thiophene-2-carboxamide], the values for the IC50 against STAT3, in the assay on MDA-MB-231 and in the assay on LNCaP were 0.19 µM, 0.086 µM and 0.35 µM, respectively.
Turning to `CS(=O)(=O)Nc1ccc2cc(C(=O)Nc3cccc(C(=O)c4ccccc4)c3)[nH]c2c1` [Example 434, N-(3-benzoylphenyl)-6-(methylsulfonamido)-1H-indole-2-carboxamide], the IC50 on STAT3 was 6.5 µM; with MDA-MB-231, 2.9 µM; with LNCaP it was > 10 µM.
As for `CC(O)(c1ccccc1)c1cccc(NC(=O)c2cc3ccc(NS(C)(=O)=O)cc3[nH]2)c1` (stereo not drawn) [Example 435, N-(3-(1-hydroxy-1-phenylethyl)phenyl)-6-(methylsulfonamido)-1H-indole-2-carboxamide], the IC50 at STAT3 was 5.8 µM; in the assay on MDA-MB-231 it was 4.3 µM; in the assay with LNCaP, > 10 µM.
In the case of `CC(C)(c1cccc(NC(=O)c2cc3ccc(N(CC(N)=O)S(C)(=O)=O)cc3[nH]2)c1)c1cc(O)cc(OC(F)(F)F)c1` [Example 436, 6-(N-(2-amino-2-oxoethyl)methylsulfonamido)-N-(3-(2-(3-hydroxy-5-(trifluoromethoxy)phenyl)propan-2-yl)phenyl)-1H-indole-2-carboxamide], the IC50 on STAT3 was 5.2 µM; in the assay with MDA-MB-231 it was 4.7 µM; with LNCaP, > 10 µM.
For `CC(C)(c1cccc(NC(=O)c2cc3ccc(N(CC(N)=O)S(C)(=O)=O)cc3[nH]2)c1)c1cc(OCC(N)=O)cc(OC(F)(F)F)c1` [Example 437, N-(3-(2-(3-(2-amino-2-oxoethoxy)-5-(trifluoromethoxy)phenyl)propan-2-yl)phenyl)-6-(N-(2-amino-2-oxoethyl)methylsulfonamido)-1H-indole-2-carboxamide] the same measures were 6.3 µM, > 10 µM and > 10 µM.

The IC50 is the concentration needed to halve the response being measured. Read a high IC50 as weaker potency in that assay.
